These results are taken from patent publication EP0390762A1, “New bronchospasmolytic compounds and process for their preparation” (priority 1989, dated 1990).

In series [1] the test system is dyspnotic breathing in histamine. Nature of the series: Duration of bronchodilating activity in conscious guinea pigs challenged with aerosolized histamine after tracheal instillation or inhalation. In kind it is in vivo. Particulars: for delay (in minutes) in the appearance of dyspnotic breathing in histamine 0.5 h after the administration / delay (in minutes) in the appearance of dyspnotic breathing in histamine 6 h after the administration: given intratracheally; for initial potency compared with salmeterol / initial potency compared with terbutaline: conscious guinea pigs, histamine challenge. Here is the method: Concious guinea pigs were used in the study. The compounds according to Examples 1 and 2, salmeterol and terbutaline, were given by inhalation or by tracheal instillation whereafter the animals were challenged in a histamine mist after different time intervals.
The guinea pigs were placed in plastic boxes and the test compounds delivered by continuous flow nebulization during 15 minutes.
The animals were lightly anaesthetized by inhalation of Efrane. The test compounds were instilled by use of a thin cannula to the tracheal bifurcation. Controlled animals were instilled with saline.
After the administrations, according to one of the mentioned routes, the animals were placed in transparent plastic cages and challenged with aerosolized histamine. The mist was generated in a nebulizer from a solution containing 0.5-1.0x10⁻³ mol/l of histamine in 3% glycerol. This concentration produced a defined dyspnotic breathing, appearing in control animals within 2-3 minutes. This phase was usally indicated by observation, sometimes also a "blinded trial" or recorded by use of a strain-gauge belt (see 0.A.T. Olsson in Acta Allergologica 26, 438, 1971). An increasing amount of spasmolytic drug gives then rise to a dose-dependent prolongation of the ability of the animals to resist this histamine spasm. As soon as a dyspnotic breathing was established the guinea pigs were removed from the histamine milieu since the same animals have to be exposed to histamine not only after 30 minutes but also at 3, 6 and 9 hours after drug administration.
In some of the experiments the animals were challenged with methacholine instead of histamine to exclude the eventuality of an antihistaminic effect of the drugs tested.
The amounts instilled produce about equieffective protection (6 to 7 minutes) against a histamine provocation 30 minutes after the administration of the test compound. The degree of protection 6 hours after the instillation of the test compound indicates the duration of the bronchospasmolytic activity.

For series [2], the system named is histamine-elicited bronchospasm. Nature of the series: Bronchospasmolytic effect (reduction of intratracheal pressure, ITP) in anaesthetized guinea pigs. The following applies: for dose-related inhibition of the histamine-elicited bronchospasm: after injection as well as after inhalation; for reduction of ITP: 3 minutes before histamine infusion. In kind it is in vivo. The method, then: (§1) Guinea pigs of either sex were used in the study. The anaesthesia was produced by intravenous pentobarbital, The trachea was cannulated and the animals articificially ventilated by a constant volume respiratory. The intratracheal pressure (ITP) was measured by a pressure transducer. An increase in ITP, above the basic pressure level, indicating a respiratory spasm, was elicited by histamine infused in a jugular vein during 20 sec. every 7 minutes and in amounts producing a peak-ITP in the range 4-6 kPa. To trace cardiovascular effects from used drugs the blood pressure was recorded from a carotide artery via a pressure transducer. The pulse wave, indicating the rate, was triggering a tachograph recording the heart frequency.
(§2) The test compounds were injected 3 minutes before a histamine infusion and the decrease in percent of the intratracheal pressure (ITP) was taken as a measure of the bronchospasmolytic activity. The influence on heart-rate was evaluated after cumultative injections; a new injection was given when the preceding one had produced a steady state in the rate.
(§3) The test compounds were nebulized and the mist produced was led to the animal through the respirator and tracheal cannula. Inhalation continued for 15 mintues for each concentration of the test compounds. The bronchodilating effect […] was calculated as percent reduction in ITP. The effect on heart-rate was determined after a cumultative increase in the concentrations of the nebulized solutions. Effect measurements were made at steady state, and three different concentrations were used.

The next series deals with heart-rate. The experiment in a line: Heart-stimulating effect (heart-rate) in anaesthetized guinea pigs. It counts as in vivo. Here is the method: as §1, §2, §3
The conditions of series [3]: inhalation therapy; cited from earlier work.

With `OCc1cc(C(O)CNCCCCCCOCCCCc2ccccc2)ccc1O` (centres unmarked) [salmeterol], the “duration of activity compared with terbutaline” value in series [1] (calculated from an equipotent level) is on record as “prolonged”. Further, the “dose-related inhibition of the histamine-elicited bronchospasm” value (“dose-related inhibition” for short) in series [2] is recorded as “inhibition of the histamine-elicited bronchospasm”. The “reduction of ITP” value in series [2] (injection of 5x10⁻¹⁰ mol/kg) is “about 50 per cent”. The “potency compared with the other two drugs (compound of Example 2, terbutaline)” value is given as “about five times” in series [2] (when inhaled) and “at least ten times higher” in series [2] (when injected). Also, the “increase of the heart-rate” value in the series on heart-rate (guinea pig, in vivo) is given as 15 beats/min; in the series on heart-rate (guinea pig, in vivo, iv) it was “about 30 beats/min”.
`CC(C)(C)NCC(O)c1ccc(O)c(CO)c1` (centres unmarked) [salbutamol]: the duration of activity in series [3] was 4 to 6 h.
As for `Cc1ccc(C(=O)Oc2ccc(C(O)CNC(C)(C)C)cc2OC(=O)c2ccc(C)cc2)cc1` (centres unmarked) [bitolterol], the duration of activity in series [3] is 4 to 6 h.
With `COc1ccc(CNc2cc(C(O)CNC(C)Cc3ccc4c(c3)OCO4)ccc2O)cc1` [(R,R+S,R)], in series [1] (1x10⁻⁷ mol/kg), the “delay (in minutes) in the appearance of dyspnotic breathing in histamine 0.5 h after the administration” value was 7 min and the “delay (in minutes) in the appearance of dyspnotic breathing in histamine 6 h after the administration” value is 3 min.
In the case of `COc1ccc(CNc2cc(C(O)CNC(C)Cc3ccc4c(c3)OCO4)ccc2O)cc1` [(R,S+S,S)], in series [1] (1x10⁻⁸ mol/kg), the “delay (in minutes) in the appearance of dyspnotic breathing in histamine 0.5 h after the administration” value is 6 min and the “delay (in minutes) in the appearance of dyspnotic breathing in histamine 6 h after the administration” value was found to be 5 min.
On to `CC(C)(C)NCC(O)c1cc(O)cc(O)c1` (centres unmarked) [Terbutaline, terbutaline], for which, in series [1] (1x10⁻⁷ mol/kg), the “delay (in minutes) in the appearance of dyspnotic breathing in histamine 0.5 h after the administration” value came out at 7 min and the “delay (in minutes) in the appearance of dyspnotic breathing in histamine 6 h after the administration” value was determined as 2 min. Besides, the “dose-related inhibition” value in series [2] is recorded as “inhibition of the histamine-elicited bronchospasm”. In addition, in series [2] (injection of 1x10⁻⁸ mol/kg), the “reduction of ITP” value was “about 50 per cent”. Moreover, the “effect on heart-rate relative to salmeterol and the compounds of the invention” value in the series with heart-rate (guinea pig, in vivo) is reported as “lies in between”. For the same compound, in the series on heart-rate (guinea pig, in vivo, iv), the “increase of the heart-rate” value is given as “about 30 beats/min”. For the same compound, the duration of activity in series [3] is 4 to 6 h.
Regarding `COc1ccc(CNc2cc([C@@H](O)CN[C@@H](C)Cc3ccc4c(c3)OCO4)ccc2O)cc1` (racemic) [(R,S+S,R)], in series [1], the “initial potency compared with salmeterol” value is “approximately ten times less than for salmeterol” and the “initial potency compared with terbutaline” value is “about the same as for terbutaline”. Also, in series [1] (1x10⁻⁸ mol/kg), the “delay (in minutes) in the appearance of dyspnotic breathing in histamine 0.5 h after the administration” value is 7 min and the “delay (in minutes) in the appearance of dyspnotic breathing in histamine 6 h after the administration” value came out at 6 min. Besides, the “dose-related inhibition” value in series [2] was “inhibition of the histamine-elicited bronchospasm”. Also, the “reduction of ITP” value in series [2] (injection of 5x10⁻⁹ mol/kg) is listed as “about 50 per cent”. The “effect on heart rate compared with salmeterol” value with heart-rate (after inhalation) is “more reduced effect on heart rate”. Further, the “relationship between the effect on the respiratory system and heart, compared with salmeterol” value with heart-rate (when the drugs are injected) is given as “the same”.
Take `COc1ccc(CNc2cc([C@@H](O)CN[C@H](C)Cc3ccc4c(c3)OCO4)ccc2O)cc1` [(R,R)]: in series [1] (5x10⁻⁸ mol/kg), the “delay (in minutes) in the appearance of dyspnotic breathing in histamine 0.5 h after the administration” value is 7 min and the “delay (in minutes) in the appearance of dyspnotic breathing in histamine 6 h after the administration” value was 3 min.
Consider `CC(Cc1ccc(O)cc1)NCC(O)c1cc(O)cc(O)c1` (centres unmarked) [fenoterol], for which, in series [3], the duration of activity was 4 to 6 h.
As for `COc1ccc(CNc2cc([C@@H](O)CN[C@@H](C)Cc3ccc4c(c3)OCO4)ccc2O)cc1` [(R,S), 1-(R)-(4-hydroxy-3-(p-methoxybenzylamino)phenyl)-2-[(1(S)-methyl-2-(3,4-methylenedioxyphenyl)ethyl)amino]ethanol], in series [1], the “initial potency compared with salmeterol” value was “approximately ten times less than for salmeterol” and the “initial potency compared with terbutaline” value is reported as “about the same as for terbutaline”. Besides, in series [1] (5x10⁻⁹ mol/kg), the “delay (in minutes) in the appearance of dyspnotic breathing in histamine 0.5 h after the administration” value stood at 6 min and the “delay (in minutes) in the appearance of dyspnotic breathing in histamine 6 h after the administration” value turned out to be 5 min.
